ChEMBL document CHEMBL5042488, “Synthesis, biological, and structural explorations of a series of μ-opioid receptor (MOR) agonists with high G protein signaling bias” (Eur J Med Chem, 2022)
Active and inactive are the calls of the source.

Experiments:
Mu-type opioid receptor [1] = molecular target: T1, Mu-type opioid receptor (Homo sapiens, UniProt P35372); assay: Agonist activity at mu opioid receptor (unknown origin) assessed as maximal cAMP level incubated for 40 mins by spectrophotometry relative to DAMGO; type: functional; details: filed as agonist
T1 sequence (P35372 whole entry): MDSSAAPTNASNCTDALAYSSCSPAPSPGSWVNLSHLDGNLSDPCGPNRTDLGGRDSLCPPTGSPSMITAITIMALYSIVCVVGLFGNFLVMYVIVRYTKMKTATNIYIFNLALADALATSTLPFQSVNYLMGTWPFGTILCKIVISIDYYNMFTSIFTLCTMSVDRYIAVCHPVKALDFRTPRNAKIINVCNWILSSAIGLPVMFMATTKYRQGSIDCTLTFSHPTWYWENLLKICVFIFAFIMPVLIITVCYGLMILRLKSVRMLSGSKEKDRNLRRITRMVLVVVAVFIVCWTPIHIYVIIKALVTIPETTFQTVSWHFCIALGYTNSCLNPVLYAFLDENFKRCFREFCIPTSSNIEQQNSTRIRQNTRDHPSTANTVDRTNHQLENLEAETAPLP

[2] = Plasma protein binding in human plasma assessed as unbound fraction; type: ADME, cell-free
[3] = Apparent permeability across apical to basal membrane in human Caco-2 cells; type: ADME, cell-based
Mu-type opioid receptor [4] = molecular target: T1, Mu-type opioid receptor; assay: Agonist activity at mu opioid receptor (unknown origin) assessed as increase in cAMP level incubated for 40 mins by spectrophotometry; type: functional
[5] = Metabolic stability in dog liver microsomes assessed as intrinsic clearance preincubated for 10 mins followed by NADPH addition and measured after 60 mins by LC-MS/MS analysis; type: ADME, Canis lupus familiaris, Microsome; details: time 70 min, read-out: CLH
[6] = Plasma protein binding in rat plasma assessed as unbound fraction; type: ADME, cell-free
[7] = Metabolic stability in rat liver microsomes assessed as intrinsic clearance preincubated for 10 mins followed by NADPH addition and measured after 60 mins by LC-MS/MS analysis; type: ADME, Microsome; details: time 70 min, read-out: CLH
[8] = Plasma protein binding in dog plasma assessed as unbound fraction; type: ADME, cell-free, Canis lupus familiaris
[9] = Metabolic stability in human liver microsomes assessed as intrinsic clearance preincubated for 10 mins followed by NADPH addition and measured after 60 mins by LC-MS/MS analysis; type: ADME, Microsome; details: time 70 min, read-out: CLH
Mu-type opioid receptor [10] = molecular target: T1, Mu-type opioid receptor; assay: Agonist activity at mu opioid receptor (unknown origin) assessed as maximal beta arrestin-2 recruitment incubated for 3 days by PathHunter assay relative to DAMGO; type: functional; details: time 3.0 day
Mu-type opioid receptor [11] = molecular target: T1, Mu-type opioid receptor; assay: Agonist activity at mu opioid receptor (unknown origin) assessed as beta arrestin-2 recruitment incubated for 3 days by PathHunter assay; type: functional
[12] = Drug concentration in Sprague-Dawley rat brain at […], iv measured after 5 mins by LC-MS/MS analysis; type: ADME, organism-based; details: dose 0.25 mg/kg, read-out: Drug uptake
[13] = Toxicity in Sprague-Dawley rat assessed as effect on blood oxygen levels at 1.56 mg/kg, sc measured after 30 mins by blood gas analyzer; type: organism-based; details: in vivo, 0.5 h
[14] = Half life of compound; type: physicochemical
[15] = MRT in Sprague-Dawley rat at 2 mg/kg, iv by LC-MS/MS analysis; type: ADME, organism-based; details: in vivo
Cytochrome P450 2C9 = Cytochrome P450 2C9 (Homo sapiens, UniProt P11712); assay: Inhibition of CYP2C9 (unknown origin); type: ADME
Cytochrome P450 2C9, sequence (P11712 whole entry): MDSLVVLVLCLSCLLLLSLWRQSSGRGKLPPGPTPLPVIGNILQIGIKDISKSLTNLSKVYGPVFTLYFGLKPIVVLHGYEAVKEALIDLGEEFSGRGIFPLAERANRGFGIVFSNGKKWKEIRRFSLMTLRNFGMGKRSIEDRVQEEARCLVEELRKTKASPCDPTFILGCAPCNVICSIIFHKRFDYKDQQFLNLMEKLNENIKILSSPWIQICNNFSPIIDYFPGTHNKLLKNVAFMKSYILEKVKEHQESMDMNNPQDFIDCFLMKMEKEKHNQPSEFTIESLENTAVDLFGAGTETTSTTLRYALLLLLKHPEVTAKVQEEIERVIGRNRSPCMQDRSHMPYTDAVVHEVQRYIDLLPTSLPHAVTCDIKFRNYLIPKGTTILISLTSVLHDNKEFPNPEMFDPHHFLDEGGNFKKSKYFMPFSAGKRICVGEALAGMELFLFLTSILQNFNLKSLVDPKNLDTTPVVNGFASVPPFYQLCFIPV

[16] = Drug concentration in Sprague-Dawley rat liver at […],iv measured after 30 mins by LC-MS/MS analysis; type: ADME, organism-based; details: in vivo, 0.5 h, dose 0.25 mg/kg
[17] = Half life in Sprague-Dawley rat at 2 mg/kg, iv by LC-MS/MS analysis; type: ADME, organism-based; details: in vivo
[18] = molecular target: Kappa-type opioid receptor (Homo sapiens, UniProt P41145); assay: Agonist activity at human kappa opioid receptor expressed in HEK293 assessed as increase in calcium mobilization incubated for 60 mins by FLIPR assay; type: functional, cell-based
Kappa-type opioid receptor, sequence (P41145 whole entry): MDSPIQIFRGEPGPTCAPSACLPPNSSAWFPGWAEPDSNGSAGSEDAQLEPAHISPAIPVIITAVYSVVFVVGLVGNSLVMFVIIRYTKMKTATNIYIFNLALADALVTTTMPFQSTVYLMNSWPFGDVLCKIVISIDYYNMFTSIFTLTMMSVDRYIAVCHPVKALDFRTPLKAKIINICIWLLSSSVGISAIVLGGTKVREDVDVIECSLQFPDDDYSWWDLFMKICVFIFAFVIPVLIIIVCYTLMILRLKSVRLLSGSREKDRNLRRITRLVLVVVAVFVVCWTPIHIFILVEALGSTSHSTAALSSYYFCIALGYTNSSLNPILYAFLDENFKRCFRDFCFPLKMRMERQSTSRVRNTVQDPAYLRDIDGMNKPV

[19] = Cmax in Sprague-Dawley rat at 2 mg/kg, iv by LC-MS/MS analysis; type: ADME, organism-based; set-up: route intravenous, dose 2 mg/kg; details: in vivo
[20] = molecular target: Delta-type opioid receptor (Homo sapiens, UniProt P41143); assay: Agonist activity at human delta opioid receptor expressed in HEK293 assessed as increase in calcium mobilization incubated for 60 mins by FLIPR assay; type: functional, cell-based
Delta-type opioid receptor, sequence (P41143 whole entry): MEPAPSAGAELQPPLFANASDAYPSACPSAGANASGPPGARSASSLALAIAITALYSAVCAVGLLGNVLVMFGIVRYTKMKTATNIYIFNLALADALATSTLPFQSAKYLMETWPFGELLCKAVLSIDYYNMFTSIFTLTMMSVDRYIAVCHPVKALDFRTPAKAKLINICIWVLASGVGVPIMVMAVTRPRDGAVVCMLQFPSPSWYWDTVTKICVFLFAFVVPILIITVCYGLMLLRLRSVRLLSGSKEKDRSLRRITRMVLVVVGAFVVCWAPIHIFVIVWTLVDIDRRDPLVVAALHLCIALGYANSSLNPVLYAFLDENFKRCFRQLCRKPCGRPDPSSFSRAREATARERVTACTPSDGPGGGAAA

Rattus norvegicus [21] = assay: Antinociceptive activity in Sprague-Dawley rat assessed as increase in paw withdrawal latency at 1 mg/kg, sc measured after 30 mins by Hot-plate test; type: functional, organism-based
Cytochrome P450 2C19 = Cytochrome P450 2C19 (Homo sapiens, UniProt P33261); assay: Inhibition of CYP2C19 (unknown origin); type: ADME
Cytochrome P450 2C19, sequence (P33261 whole entry): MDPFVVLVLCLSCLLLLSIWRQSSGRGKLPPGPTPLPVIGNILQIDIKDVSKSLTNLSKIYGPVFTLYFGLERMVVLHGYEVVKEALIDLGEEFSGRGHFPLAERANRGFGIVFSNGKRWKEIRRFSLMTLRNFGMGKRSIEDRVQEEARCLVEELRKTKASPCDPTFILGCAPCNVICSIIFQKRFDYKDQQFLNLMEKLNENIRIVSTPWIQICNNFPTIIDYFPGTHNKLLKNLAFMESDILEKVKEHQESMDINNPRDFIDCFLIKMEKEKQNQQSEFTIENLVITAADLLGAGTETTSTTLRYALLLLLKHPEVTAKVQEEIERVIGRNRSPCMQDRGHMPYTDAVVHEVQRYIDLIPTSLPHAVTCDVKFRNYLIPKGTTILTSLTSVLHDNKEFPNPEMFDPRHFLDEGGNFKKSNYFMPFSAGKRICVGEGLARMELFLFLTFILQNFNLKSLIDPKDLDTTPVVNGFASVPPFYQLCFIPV

Rattus norvegicus [22] = assay: Antinociceptive activity in sc dosed Sprague-Dawley rat assessed as increase in thermal pain threshold measured after 30 mins by Hot-plate test; type: functional; details: 0.5 h
[23] = Apparent volume of distribution in Sprague-Dawley rat at 2 mg/kg, iv by LC-MS/MS analysis; type: ADME, organism-based; details: in vivo, read-out: Vz

SMILES | Emax (Mu-type opioid receptor [1]) [%] | EC50 (Mu-type opioid receptor [4]) [nM] | CLint scaled [9] [mL/min/kg] | Emax (Mu-type opioid receptor [10]) [%] | EC50 (Mu-type opioid receptor [11]) [µM] | other results
c1ccc([C@]2(CCNCc3scc4c3CCC4)CCO[C@]3(CCOC3)C2)nc1 | 96.9 | 0.46 | 49 | – | – | fraction unbound [2]: 0.54; Papp A→B [3]: 2.4 ×10⁻⁶ cm/s; CLint scaled [5]: 203 mL/min/kg; fraction unbound [6]: 0.58; CLint scaled [7]: 651 mL/min/kg; fraction unbound [8]: 0.16
FC1(F)Cc2csc(CNCC[C@@]3(c4ccccn4)CCOC4(CCCC4)C3)c2C1 | 96.9 | 0.1 | – | 9.8 | 0.01 | –
Fc1ccc([C@]2(CCNCc3scc4c3COC4)CCOC3(CCOC3)C2)cc1 (stereo partly specified) | – | 6.8 | 191 | – | > 30 | –
Clc1cccc(CNCC[C@@]2(c3ccccn3)CCOC3(CCOC3)C2)c1 (stereo partly specified) | 86.4 | 2.6 | 22.1 | – | > 30 | –
Cc1cc(C)cc(CNCC[C@@]2(c3ccccn3)CCOC3(CCOC3)C2)c1 (stereo partly specified) | 96.6 | 11.6 | – | 4.6 | > 30 | –
COc1ccsc1CNCC[C@@]1(c2ccccn2)CCOC2(CCCC2)C1 [OLICERIDINE] | 92.5 | – | – | 4.6 | – | concentration at 5 min [12]: 64.8 ng/g; Activity [13]: 87.62%; half-life [14]: 6.51 min; fraction unbound [2]: 0.22; MRT [15]: 49.2 min; IC50 (Cytochrome P450 2C9): > 50 µM; Papp A→B [3]: 4.4 ×10⁻⁶ cm/s; Drug uptake [16]: 23.8%; half-life [17]: 72.6 min; EC50 [18]: > 10 µM; Cmax [19]: 249 ng/mL; EC50 [20]: > 10 µM; CLint scaled [5]: 465 mL/min/kg; Activity (Rattus norvegicus [21]): Active; fraction unbound [6]: 0.36; IC50 (Cytochrome P450 2C19): > 50 µM; ED50 (Rattus norvegicus [22]): 0.85 mg/kg; CLint scaled [7]: 1110 mL/min/kg; Vd [23]: 6.39 L/kg; fraction unbound [8]: 0.023
Cc1cccc(CNCC[C@@]2(c3ccccn3)CCOC3(CCOC3)C2)c1 (stereo partly specified) | 88.9 | 6.1 | 8.8 | – | > 30 | –
Fc1ccc([C@]2(CCNCc3scc4c3CCC4)CCOC3(CCOCC3)C2)nc1 | 125 | 178 | – | – | 0.725 | Emax (Mu-type opioid receptor [10]; filed as agonist): 125%
Clc1ccc(CNCC[C@@]2(c3ccccn3)CCOC3(CCOC3)C2)s1 (stereo partly specified) | 93.3 | 22.3 | – | 2.3 | > 30 | –
COc1ccsc1CNCC[C@@]1(c2ccccn2)CCO[C@@]2(CCOC2)C1 | 66.3 | – | – | – | > 30 | –
c1ccc([C@]2(CCNCC3CCCCC3)CCOC3(CCOC3)C2)nc1 (stereo partly specified) | 59.2 | 61.6 | – | – | > 30 | –
Fc1ccc([C@]2(CCNCc3scc4c3CCCC4)CCO[C@]3(CCOC3)C2)nc1 | 99.5 | 0.2 | 338 | – | > 30 | –
c1ccc([C@]2(CCNCc3ccc4ccccc4c3)CCOC3(CCOC3)C2)nc1 (stereo partly specified) | 124 | 174 | – | 1.1 | > 30 | –
